Reference: patent US9133122B2, “Amide compounds, compositions and uses thereof” (EVOTEC AG, priority 2008, dated 2015)
pIC50: −log10 of the molar value.

Key:
[1] = target: T1, hP2X2/3H (Homo sapiens, UniProt P56373+Q9UBL9); assay: Calcium uptake assay (Ca influx), P2X antagonist assay, P2X2/3 heteromer; type: cell-based; conditions: inhibition of agonist-induced calcium influx
T1 construct: expressed in transfected cells
T1 sequence (P56373 1-397): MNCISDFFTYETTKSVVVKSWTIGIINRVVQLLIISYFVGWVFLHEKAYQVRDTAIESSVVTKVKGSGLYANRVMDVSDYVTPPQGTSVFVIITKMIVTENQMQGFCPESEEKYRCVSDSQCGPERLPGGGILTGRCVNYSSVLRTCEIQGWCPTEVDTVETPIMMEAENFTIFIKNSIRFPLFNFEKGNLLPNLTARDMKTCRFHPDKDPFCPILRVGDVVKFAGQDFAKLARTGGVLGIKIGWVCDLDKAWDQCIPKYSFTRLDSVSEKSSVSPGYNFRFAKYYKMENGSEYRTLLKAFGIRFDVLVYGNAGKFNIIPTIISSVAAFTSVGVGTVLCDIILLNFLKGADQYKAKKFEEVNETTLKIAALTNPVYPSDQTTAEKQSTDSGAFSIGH
T1 sequence (Q9UBL9 1-471): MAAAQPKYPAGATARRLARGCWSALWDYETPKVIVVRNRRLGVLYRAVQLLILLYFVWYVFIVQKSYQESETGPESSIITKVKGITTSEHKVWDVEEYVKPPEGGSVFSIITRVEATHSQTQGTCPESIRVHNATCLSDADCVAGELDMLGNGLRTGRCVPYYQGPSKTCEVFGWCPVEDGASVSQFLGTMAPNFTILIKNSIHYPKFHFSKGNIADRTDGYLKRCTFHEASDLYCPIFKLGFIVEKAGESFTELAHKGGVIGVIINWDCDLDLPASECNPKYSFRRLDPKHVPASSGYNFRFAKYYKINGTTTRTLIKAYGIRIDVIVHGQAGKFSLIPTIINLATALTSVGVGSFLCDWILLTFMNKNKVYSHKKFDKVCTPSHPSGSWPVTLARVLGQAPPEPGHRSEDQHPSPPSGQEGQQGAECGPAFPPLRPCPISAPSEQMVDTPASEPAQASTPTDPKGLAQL
Text: (§1) Human P2X3 (Accession no. NM_002559), P2X2 (Accession no. NM_170682) and Rat P2X3 (Accession no. NM_031075) and P2X2 (Accession no. NM_053656) are cloned into a mammalian expression vector (e.g., pcDNAS/TO or pcDNA3 Invitrogen). The human P2X2/3 chimera clone is created as described by Neelands et al, and then cloned into an expression vector as above. Receptors are expressed in cells (e.g., HEK293 or 1321N1 (obtained from the ECACC)) via transient transfection using standard lipid mediated transfection, or by creation of stable transfectants for each receptor. For expression of the P2X2/3 heteromeric receptor, the P2X3 expression vector is stably transfected into a cell line already stably expressing P2X2. P2X2/3 heteromer function is isolated using pharmacological methods. Cell lines are maintained in DMEM+5% Glutamax, the appropriate level of selective antibiotic, and 10% heat inactivated FBS.
(§2) Functional activity of compounds at the P2X receptor is determined by measuring their ability to inhibit agonist-induced calcium influx. Compounds are tested for antagonist activity against the P2X2/3 chimera, the P2X3 homomer, or the P2X2/3 heteromer. At the start of each screening day, the agonist EC50 is determined. Compound % inhibition or IC50s are subsequently determined using a predetermined agonist concentration (EC50-90 depending on cell line) as a stimulus. The agonists used are αβMeATP, ATP, or other ATP analogs. Compounds may be tested at concentrations ranging from 1 pM to 10 μM.
(§3) To test for antagonist activity, cells expressing the appropriate receptor are seeded onto 96 or 384 well plates 18-24 hours prior to assay. On the day of the assay, cells are loaded with calcium-sensitive fluorescent dye (e.g., Fluo-4 no wash reagent-Invitrogen cat#F36206, or the BD™ PBX Calcium Assay Kit-BD cat #640175) in Hank's Buffered Salt Solution (HBSS) with up to 10 mM supplemental CaCl2. Plates are incubated at 37° C. and then equilibrated at room temperature. Antagonism of agonist-induced calcium influx is measured using a fluorescent imaging plate reader (e.g. FLIPR^TETRA, Molecular Devices, Sunnyvale, Calif.). The assay comprises two stages: a pre-treatment phase followed by a treatment phase. Compounds may be tested as follows: For the pre-treatment phase, 50 μL of 3× concentration of test compound in HBSS is added to cells containing 100 μL of dye loading media to achieve a final concentration of 1× test compound. For the treatment phase, at a set interval after pre-treatment (1-30 minutes), 50 μL of 1× test compound plus 4× agonist solution is added, resulting in a final concentration of 1× compound and 1× agonist. Fluorescence is measured at 0.1-3 second intervals—with an excitation wavelength of 494 nm and an emission wavelength of 515 nm. Responses are measured as (peak fluorescence after agonist addition) minus (baseline fluorescence prior to treatment). Percent inhibition is calculated as follows:
(§4) [formula] IC50 values are determined by analyzing dose response data in a 4 parameter logistic fit using GraphPad Prizm.
(§5) The following compounds have been or can be prepared according to the synthetic methods described herein. A calcium uptake assay was performed as described above and the activity of each compound is expressed as follows: […]

[2] = target: T2, hP2X3 (Homo sapiens, UniProt P56373); assay: Calcium uptake assay (Ca influx), P2X antagonist assay, P2X3 homomer; type: cell-based; conditions: inhibition of agonist-induced calcium influx
T2 construct: expressed in transfected cells
T2 sequence (P56373 1-397): T1 sequence (P56373 1-397)
Text: as §1, §2, §3, §4, §5

SMILES	pIC50 [1]	pIC50 [2]
Cc1ncc([C@@H](C)NC(=O)c2cc(-c3ccccn3)cc(-c3ccccc3C#N)c2)cn1 [Compound 43, 2′-Cyano-5-pyridin-2-yl-biphenyl-3-carboxylic acid [(R)-1-(2-methyl-pyrimidin-5-yl)-ethyl]-amide]	6.90	7.62
Cc1ncc([C@@H](C)NC(=O)c2cc(-c3ccccn3)cc(-c3ccccc3CO)c2)cn1 [Compound 44, 2′-Hydroxymethyl-5-pyridin-2-yl-biphenyl-3-carboxylic acid [(R)-1-(2-methyl-pyrimidin-5-yl)-ethyl]-amide]	6.53	7.04
COCc1ccccc1-c1cc(C(=O)N[C@H](C)c2cnc(C)nc2)cc(-c2ccc(C)cn2)c1 [Compound 45, 2′-Methoxymethyl-5-(5-methyl-pyridin-2-yl)-biphenyl-3-carboxylic acid [(R)-1-(2-methyl-pyrimidin-5-yl)-ethyl]-amide]	7.87	7.84
Cc1ccc(-c2cc(C(=O)NCc3ccc(C)nc3)cc(-c3cnccc3C#N)c2)nc1 [Compound 46, 3-(4-Cyano-pyridin-3-yl)-5-(5-methyl-pyridin-2-yl)-N-(6-methyl-pyridin-3-ylmethyl)-benzamide]	8.06	8.14
Cc1ccc(-c2cc(C(=O)N[C@H](C)c3cnc(C)nc3)cc(-c3ccccc3C(N)=O)c2)nc1 [Compound 47, 5′-(5-Methyl-pyridin-2-yl)-biphenyl-2,3′-dicarboxylic acid 2-amide 3′-{[(R)-1-(2-methyl-pyrimidin-5-yl)-ethyl]-amide}]	7.43	7.54
Cc1ccc(-c2cc(C(=O)N[C@H](C)c3cnc(C)nc3)cc(N3CCCC3=O)c2)cc1 [Compound 48, 4′-Methyl-5-(2-oxo-pyrrolidin-1-yl)-biphenyl-3-carboxylic acid [(R)-1-(2-methyl-pyrimidin-5-yl)-ethyl]-amide]	7.48	7.78
Cc1ccc(-c2cc(C(=O)NCc3ccc(C)nc3)cc(N3CCCC3=O)c2)cc1 [Compound 49, 4′-Methyl-5-(2-oxo-pyrrolidin-1-yl)-biphenyl-3-carboxylic acid (6-methyl-pyridin-3-ylmethyl)-amide]	6.69	7.47
Cc1ccc(-c2cc(C(=O)NCc3cnc(C)nc3)cc(N3CCCC3=O)c2)cc1 [Compound 50, 4′-Methyl-5-(2-oxo-pyrrolidin-1-yl)-biphenyl-3-carboxylic acid (2-methyl-pyrimidin-5-ylmethyl)-amide]	6.37	7.59
Cc1ccc(-c2cc(C(=O)N[C@H](C)c3ccc(C)nc3)cc(N3CCCC3=O)c2)cc1 [Compound 51, 4′-Methyl-5-(2-oxo-pyrrolidin-1-yl)-biphenyl-3-carboxylic acid [(R)-1-(6-methyl-pyridin-3-yl)-ethyl]-amide]	7.43	7.62
Cc1ccc(-c2cc(C(=O)N[C@H](C)c3cnc(C)nc3)cc(-c3cccc(F)c3C#N)c2)nc1 [Compound 52, 2′-Cyano-3′-fluoro-5-(5-methyl-pyridin-2-yl)-biphenyl-3-carboxylic acid [(R)-1-(2-methyl-pyrimidin-5-yl)-ethyl]-amide]	7.43	7.58
COCc1ccccc1-c1cc(C(=O)N[C@H](C)c2cnc(C)nc2)cc(-c2ccccn2)c1 [Compound 53, 2′-Methoxymethyl-5-pyridin-2-yl-biphenyl-3-carboxylic acid [(R)-1-(2-methyl-pyrimidin-5-yl)-ethyl]-amide]	6.53	7.20
Cc1ccc(-c2cc(C(=O)N[C@H](C)c3cnc(C)nc3)cc(-c3ccccc3C(=O)N(C)C)c2)nc1 [Compound 54, 5′-(5-Methyl-pyridin-2-yl)-biphenyl-2,3′-dicarboxylic acid 2-dimethylamide 3′-{[(R)-1-(2-methyl-pyrimidin-5-yl)-ethyl]-amide}]	6.29	7.26
Cc1ccc(-c2cc(C(=O)N[C@H](C)c3cnc(C)nc3)cc(-c3cnccc3C#N)c2)nc1 [Compound 55, 3-(4-Cyano-pyridin-3-yl)-5-(5-methyl-pyridin-2-yl)-N-[(R)-1-(2-methyl-pyrimidin-5-yl)-ethyl]-benzamide]	7.56	7.90
Cc1ccc(-c2cc(C(=O)N[C@H](C)c3cnc(C)nc3)cc(N3CCCCC3=O)c2)nc1 [Compound 56, 3-(5-Methyl-pyridin-2-yl)-N-[(R)-1-(2-methyl-pyrimidin-5-yl)-ethyl]-5-(2-oxo-piperidin-1-yl)-benzamide]	6.38	7.02
Cc1ccc(-c2cc(C(=O)N[C@H](C)c3cnc(C)nc3)cc(N3CCOCC3=O)c2)nc1 [Compound 57, 3-(5-Methyl-pyridin-2-yl)-N-[(R)-1-(2-methyl-pyrimidin-5-yl)-ethyl]-5-(3-oxo-morpholin-4-yl)-benzamide]	6.28	7.05
Cc1ccc(-c2cc(C(=O)N[C@H](C)c3cnc(C)nc3)cc(N3CCCC3=O)c2)nc1 [Compound 58, (R)-3-(5-Methylpyridin-2-yl)-N-(1-(2-methylpyrimidin-5-yl)ethyl)-5-(2-oxopyrrolidin-1-yl)benzamide]	6.71	7.45
Cc1ccc(-c2cc(C(=O)NCc3ccc(C)nc3)cc(N3CCC[C@H]3CO)c2)cc1 [Compound 59, (S)-5-(2-(Hydroxymethyl)pyrrolidin-1-yl)-4′-methyl-N-((6-methylpyridin-3-yl)methyl)biphenyl-3-carboxamide]	6.90	7.18
Cc1ccc(-c2cc(C(=O)N[C@@H](C)CO)cc(N3CCCC3=O)c2)cc1 [Compound 60, 4′-Methyl-5-(2-oxo-pyrrolidin-1-yl)-biphenyl-3-carboxylic acid ((S)-2-hydroxy-1-methyl-ethyl)-amide]	5.06	6.68
Cc1ccc(-c2cc(C(=O)NCc3ccc(C)nc3)cc(N3CCNCC3=O)c2)cc1 [Compound 61, 4′-Methyl-5-(2-oxo-piperazin-1-yl)-biphenyl-3-carboxylic acid (6-methyl-pyridin-3-ylmethyl)-amide]	5.63	6.57
Cc1ccc(-c2cc(C(=O)NCc3ccc(C)nc3)cc(N3CCC[C@@H]3CO)c2)cc1 [Compound 62, 5-((R)-2-Hydroxymethyl-pyrrolidin-1-yl)-4′-methyl-biphenyl-3-carboxylic acid (6-methyl-pyridin-3-ylmethyl)-amide]	7.32	7.34
Cc1ccc(-c2cc(C(=O)NCc3ccc(C)nc3)cc(N3CCC[C@@H]3CO)c2)nc1 [Compound 63, 3-((R)-2-Hydroxymethyl-pyrrolidin-1-yl)-5-(5-methyl-pyridin-2-yl)-N-(6-methyl-pyridin-3-ylmethyl)-benzamide]	7.59	7.93
